Test results published in patent publication US7709478B2, “Acylated 6,7,8,9-tetrahydro-5H-benzocycloheptenyl amines and their use as pharmaceutical agents” (sanofi-aventis Deutschland GmbH, priority 2001, dated 2010).

Tested on: eNOS promoter
Assay: Activation of eNOS transcription (eNOS promoter-luciferase reporter gene assay)
Format: cell-based, human
Conditions: 18 h incubation; for EC50: EC50 of transcription induction ratio vs compound concentration, determined graphically, human endothelial cell line stably transfected with eNOS promoter-luciferase construct; for maximal fold induction / TIR(max): maximum transcription induction ratio (luciferase activity with compound / solvent alone), human endothelial cell line with eNOS promoter-luciferase construct; for maximal fold induction: read-out: TIR(max)
Method: Measurement of Activation of eNOS Transcription
Activation of eNOS transcription was measured as described in detail in Li et al. “Activation of protein kinase C alpha and/or epsilon enhances transcription of the human endothelial nitric oxide synthase gene”, Mol. Pharmacol. 1998; 53: 630-637.
Briefly, a 3.5 kB long fragment 5′ of the starting codon of the eNOS gene was cloned, sequenced and cloned in firefly luciferase expression plasmids to monitor activation of the eNOS promoter by reporter gene activity. A human endothelial cell line stable transfected and expressing this promoter-reporter construct was used for compound testing. Cells were incubated for 18 h with compounds.
All compounds were dissolved in sterile DMSO. A final concentration of 0.5% DMSO in complete medium was allowed. Induction of reporter gene expression in these cells was measured using a standard luciferase assay system (Promega, Cat. No E150) according to the manufacturer's instructions. Luciferase induction in cells incubated with compounds were compared to those incubated with solvent alone. The ratio of both activities (transcription induction ratio, TIR) was plotted as a function of compound concentration. Typically, TIR values started at low concentrations at a ratio of 1, indicating no compound effect, and extended up to a maximum TIR value TIR(max) which indicates the increase of the eNOS transcription. EC50 values of transcription induction ratios as a function of compound concentration were determined graphically.

O=C(NC1CCCc2ccccc2C1)c1cc(NCc2ccccc2)ccn1 (stereo not shown) [Compound 142, 4-BENZYLAMINO-PYRIDINE-2-CARBOXYLIC ACID (6,7,8,9-TETRAHYDRO-5H-BENZOCYCLOHEPTEN-6-YL)-AMIDE]
EC50: 3000 nM
maximal fold induction: 2.5

Cc1ccc(C(=O)NC2CCCc3ccccc3C2)cn1 (single isomer, unassigned) [Compound 54, 6-METHYL-N-(6,7,8,9-TETRAHYDRO-5H-BENZOCYCLOHEPTEN-6-YL)-NICOTINAMIDE]
EC50: 42 nM
maximal fold induction: 3.2

CN(C)c1ccc(C(=O)NC2CCCc3ccccc3C2)cn1 (stereo not shown) [Compound 81, 6-DIMETHYLAMINO-N-(6,7,8,9-TETRAHYDRO-5H-BENZOCYCLOHEPTEN-6-YL)-NICOTINAMIDE]
EC50: 53 nM
maximal fold induction: 3.3

O=C(NC1CCCc2ccccc2C1)c1ccc2cc[nH]c2c1 (stereo not shown) [Compound 20, 1H—INDOLE-6-CARBOXYLIC ACID (6,7,8,9-TETRAHYDRO-5H-BENZOCYCLOHEPTEN-6-YL)-AMIDE]
EC50: 16 nM
maximal fold induction: 3.1

O=C(NC1CCCc2ccccc2C1)c1cccc(N2CCOCC2)c1 (stereo not shown) [Compound 108, 3-MORPHOLIN-4-YL-N-(6,7,8,9-TETRAHYDRO-5H-BENZOCYCLOHEPTEN-6-YL)-BENZAMIDE]
EC50: 14000 nM
maximal fold induction: 3.1

O=C(N[C@H]1CCCc2ccccc2C1)c1ccc2nc[nH]c2c1 [Compound 126, (S)-3H-BENZOIMIDAZOLE-5-CARBOXYLIC ACID (6,7,8,9-TETRAHYDRO-5H-BENZOCYCLOHEPTEN-6-YL)-AMIDE]
EC50: 351 nM
maximal fold induction: 2.9

CCOc1ccc(C(=O)NC2CCCc3ccccc3C2)cc1 (stereo not shown) [Compound 5, 4-ETHOXY-N-(6,7,8,9-TETRARYDRO-5H-BENZOCYCLOHEPTEN-6-YL)-BENZAMIDE]
EC50: < 80 nM
TIR(max): 3.0

O=C(NC1CCCc2ccccc2C1)c1ccc(C(F)(F)F)nc1 (single isomer, unassigned) [Compound 37, N-(6,7,8,9-TETRAHYDRO-5H-BENZOCYCLOHEPTEN-6-YL)-6-TRIFLUOROMETHYL-NICOTINAMIDE]
EC50: 283 nM
maximal fold induction: 2.9

Cc1cc(C)c(C(=O)NC2CCCc3ccccc3C2)cn1 (single isomer, unassigned) [Compound 110, 4,6-DIMETHYL-N-(6,7,8,9-TETRAHYDRO-5H-BENZOCYCLOHEPTEN-6-YL)-NICOTINAMIDE]
EC50: 1000 nM
maximal fold induction: 3.1

Cc1nc(C)c(C(=O)NC2CCCc3ccccc3C2)s1 (single isomer, unassigned) [Compound 28, 2,4-DIMETHYL-THIAZOLE-5-CARBOXYLIC ACID (6,7,8,9-TETRAHYDRO-5H-BENZOCYCLOHEPTEN-6-YL)-AMIDE]
EC50: 49 nM
maximal fold induction: 3.4

CS(=O)(=O)Nc1cccnc1C(=O)NC1CCCc2ccccc2C1 (stereo not shown) [Compound 145, 3-METHANESULFONYLAMINO-PYRIDINE-2-CARBOXYLIC ACID (6,7,8,9-TETRAHYDRO-5H-BENZOCYCLOHEPTEN-6-YL)-AMIDE]
EC50: 3800 nM
maximal fold induction: 1.6

COc1ccc(C(=O)NC2CCCc3ccccc3C2)c(OC)n1 (stereo not shown) [Compound 15, 2,6-DIMETHOXY-N-(6,7,8,9-TETRAHYDRO-5H-BENZOCYCLOHEPTEN-6-YL)-NICOTINAMIDE]
EC50: 779 nM
maximal fold induction: 3.1

O=C(NC1CCCc2ccccc2C1)c1ccc2[nH]nnc2c1 (stereo not shown) [Compound 13, 1H-BENZOTRIAZOLE-5-CARBOXYLIC ACID (6,7,8,9-TETRAHYDRO-5H-BENZOCYCLOHEPTEN-6-YL)-AMIDE]
EC50: 8800 nM
maximal fold induction: 2

Cc1ccc(C(=O)N[C@H]2CCCc3ccccc3C2)cc1NS(C)(=O)=O [Compound 119, (S)-3-METHANESULFONYLAMINO-4-METHYL-N-(6,7,8,9-TETRAHYDRO-5H-BENZOCYCLOHEPTEN-6-YL)-BENZAMIDE]
EC50: 230 nM
maximal fold induction: 3

Cc1nc(C)c(C(=O)NC2CCCc3ccccc3C2)s1 (single isomer, unassigned) [Compound 29, 2,4-DIMETHYL-THIAZOLE-5-CARBOXYLIC ACID (6,7,8,9-TETRAHYDRO-5H-BENZOCYCLOHEPTEN-6-YL)-AMIDE]
EC50: 9600 nM
TIR(max): 3.4

Cc1ncsc1C(=O)NC1CCCc2ccccc2C1 (stereo not shown) [Compound 109, 4-METHYL-THIAZOLE-5-CARBOXYLIC ACID (6,7,8,9-TETRAHYDRO-5H-BENZOCYCLOHEPTEN-6-YL)-AMIDE]
EC50: 1800 nM
maximal fold induction: 2.8

Cc1cc(C(=O)NC2CCCc3ccccc3C2)c(C)[nH]1 (single isomer, unassigned; (-)) [Compound 50, (−)-2,5-DIMETHYL-1H-PYRROLE-3-CARBOXYLIC ACID (6,7,8,9-TETRAHYDRO-5H-BENZOCYCLOHEPTEN-6-YL)-AMIDE]
EC50: 1800 nM
TIR(max): 3

Cc1nc(N(C)C)sc1C(=O)N[C@H]1CCCc2ccccc2C1 [Compound 129, (S)-2-DIMETHYLAMINO-4-METHYL-THIAZOLE-5-CARBOXYLIC ACID (6,7,8,9-TETRAHYDRO-5H-BENZOCYCLOHEPTEN-6-YL)-AMIDE]
EC50: 100 nM
maximal fold induction: 3.1

NS(=O)(=O)c1cc(C(=O)NC2CCCc3ccccc3C2)ccc1Cl (stereo not shown) [Compound 138, 4-CHLORO-3-SULFAMOYL-N-(6,7,8,9-TETRAHYDRO-5H-BENZOCYCLOHEPTEN-6-YL)-BENZAMIDE]
EC50: 10000 nM
maximal fold induction: 3

CN(C)c1ccc(C(=O)N[C@H]2CCCc3ccccc3C2)cn1 [Compound 117, (S)-6-DIMETHYLAMINO-N-(6,7,8,9-TETRAHYDRO-5H-BENZOCYCLOHEPTEN-6-YL)-NICOTINAMIDE]
EC50: 136 nM
maximal fold induction: 3

O=C(NC1CCCc2ccccc2C1)c1nc(Cl)ccc1Cl (stereo not shown) [Compound 141, 3,6-DICHLORO-PYRIDINE-2-CARBOXYLIC ACID (6,7,8,9-TETRAHYDRO-5H-BENZOCYCLOHEPTEN-6-YL)-AMIDE]
EC50: 250 nM
maximal fold induction: 3.2

O=C(NC1CCCc2ccccc2C1)c1cnc(N2CCOCC2)nc1 (stereo not shown) [Compound 64, 2-MORPHOLIN-4-YL-PYRIMIDINE-5-CARBOXYLIC ACID (6,7,8,9-TETRAHYDRO-5H-BENZOCYCLOHEPTEN-6-YL)-AMIDE]
EC50: 16000 nM
maximal fold induction: 3.1

Cc1nc(N)c(C(=O)N[C@H]2CCCc3ccccc3C2)nc1C [Compound 115, (S)-3-AMINO-5,6-DIMETHYL-PYRAZINE-2-CARBOXYLIC ACID (6,7,8,9-TETRAHYDRO-5H-BENZOCYCLOHEPTEN-6-YL)-AMIDE]
EC50: 20 nM
maximal fold induction: 3

CN(C)c1cccc(C(=O)NC2CCCc3ccccc3C2)c1 (single isomer, unassigned) [Compound 43, 3-DIMETHYLAMINO-N-(6,7,8,9-TETRAHYDRO-5H-BENZOCYCLOHEPTEN-6-YL)-BENZAMIDE]
EC50: 80 nM
maximal fold induction: 3.2

Cc1cnc(C(=O)NC2CCCc3ccccc3C2)cn1 (single isomer, unassigned) [Compound 32, 5-METHYL-PYRAZINE-2-CARBOXYLIC ACID (6,7,8,9-TETRAHYDRO-5H-BENZOCYCLOHEPTEN-6-YL)-AMIDE]
EC50: 47 nM
maximal fold induction: 3

COc1ccc(C(=O)NC2CCCc3ccccc3C2)cn1 (stereo not shown) [Compound 102, 6-METHOXY-N-(6,7,8,9-TETRAHYDRO-5H-BENZOCYCLOHEPTEN-6-YL)-NICOTINAMIDE]
EC50: 83 nM
maximal fold induction: 2.9
